Data set [1] concerns the target T1, Androgen receptor (Homo sapiens, UniProt P10275).
T1 sequence (P10275 whole entry): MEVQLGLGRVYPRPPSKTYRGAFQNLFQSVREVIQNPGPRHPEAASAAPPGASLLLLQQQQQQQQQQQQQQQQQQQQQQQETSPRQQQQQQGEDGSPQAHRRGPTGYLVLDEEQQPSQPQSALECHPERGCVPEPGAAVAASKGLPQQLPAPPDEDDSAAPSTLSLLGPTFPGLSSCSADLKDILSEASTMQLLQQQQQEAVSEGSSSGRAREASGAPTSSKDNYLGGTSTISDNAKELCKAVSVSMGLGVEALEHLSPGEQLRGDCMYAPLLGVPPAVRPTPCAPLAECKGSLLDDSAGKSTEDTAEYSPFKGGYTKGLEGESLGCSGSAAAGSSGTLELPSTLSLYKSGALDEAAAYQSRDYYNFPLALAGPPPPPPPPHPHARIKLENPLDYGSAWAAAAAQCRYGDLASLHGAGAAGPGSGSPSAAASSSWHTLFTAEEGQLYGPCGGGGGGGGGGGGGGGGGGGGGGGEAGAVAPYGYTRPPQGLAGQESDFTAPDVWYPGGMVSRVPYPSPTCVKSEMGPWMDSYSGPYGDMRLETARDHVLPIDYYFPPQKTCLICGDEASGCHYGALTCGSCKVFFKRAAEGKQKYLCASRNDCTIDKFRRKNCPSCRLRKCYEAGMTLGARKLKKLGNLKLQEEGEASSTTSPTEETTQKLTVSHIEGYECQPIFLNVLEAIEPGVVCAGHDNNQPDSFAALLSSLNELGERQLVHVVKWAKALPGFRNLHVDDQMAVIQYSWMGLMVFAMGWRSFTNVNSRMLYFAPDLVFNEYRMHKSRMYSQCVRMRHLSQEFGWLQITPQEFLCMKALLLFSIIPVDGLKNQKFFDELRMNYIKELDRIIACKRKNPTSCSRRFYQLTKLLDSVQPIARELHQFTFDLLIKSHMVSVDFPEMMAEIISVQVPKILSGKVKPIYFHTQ
The experiment in a line: Antagonist activity at Androgen receptor in human LNCaP cells transfected with ARR2PB-eGFP incubated for 3 days by synergy H1 microplate reader analysis. Type of data set: cell-based.

The next data set deals with hERG (KCNH2) (Homo sapiens, UniProt Q12809). The data set is described as follows: Inhibition of hERG at 10 uM relative to control. Type of data set: toxicity. In general terms: hERG is a cardiac potassium channel; its block is linked to QT prolongation.
Data set [2] is described as follows: Antiproliferative activity against human WPMY-1 cells assessed as reduction in cell viability upto 2 uM incubated for 3 days by MTT assay. Type of data set: toxicity, cell-based. The following applies: wpmy-1, 72 h, time 3 day. For orientation: Formazan colour is commonly taken as a measure of viable cells.
Data set [3] deals with Androgen receptor (Homo sapiens, UniProt P10275, F877L). The experiment in a line: Antagonist activity at Androgen receptor F877L mutant in human HEK293T cells cotransfected with MMTV-luc and renilla plasmid incubated for 24 hrs by Dual luciferase assay. Type of data set: cell-based.
The nature of data set [4]: Half life in rat at 20 mg/kg, po by LC-MS/MS analysis. Conditions: in vivo. Type of data set: ADME, organism-based.
Data set [5] in a line: Tmax in rat at 20 mg/kg, po by LC-MS/MS analysis. Type of data set: ADME, organism-based. Conditions: in vivo.
A short description of data set [6]: Cmax in rat at 20 mg/kg, iv by LC-MS/MS analysis. Type of data set: ADME, organism-based. The following applies: in vivo.
Data set [7] is described as follows: AUC (0 to t) in rat at 20 mg/kg, po by LC-MS/MS analysis. Type of data set: ADME, organism-based. The following applies: in vivo.
Data set [8] in a line: AUC (0 to infinity) in rat at 20 mg/kg, iv by LC-MS/MS analysis. The following applies: in vivo. Type of data set: ADME, organism-based.
The nature of data set [9]: Observed apparent volume of distribution during terminal phase in rat at 20 mg/kg, po by LC-MS/MS analysis. Type of data set: ADME, organism-based. Conditions: in vivo, read-out: Vz/F_obs.
A short description of data set [10]: MRTlast in rat at 20 mg/kg, po by LC-MS/MS analysis. Type of data set: ADME, organism-based. Conditions: in vivo.
Data set [11] in a line: Oral bioavailability in rat at 20 mg/kg by LC-MS/MS analysis. Type of data set: ADME, organism-based. The following applies: in vivo.
A short description of data set [12]: Microsomal stability in human liver microsome assessed as half life measured upto 60 mins in presence of NADPH and UDPGA by HPLC-MS/MS analysis. Type of data set: ADME. The following applies: liver microsomes. On the technique in general: Microsomes from liver hold many membrane-bound enzymes, among them those of drug oxidation.
Data set [13] can be described thus: Microsomal stability in monkey liver microsome assessed as half life measured upto 60 mins in presence of NADPH and UDPGA by HPLC-MS/MS analysis. Type of data set: ADME, Macaca mulatta. Conditions: rhesus monkey, liver microsomes.
The nature of data set [14]: Microsomal stability in Beagle dog liver microsome assessed as intrinsic clearance measured upto 60 mins in presence of NADPH and UDPGA by HPLC-MS/MS analysis. The following applies: liver microsomes, read-out: CLH. Type of data set: ADME, Canis lupus familiaris.
Data set [15] in a line: Microsomal stability in mouse liver microsome assessed as intrinsic clearance measured upto 60 mins in presence of NADPH and UDPGA by HPLC-MS/MS analysis. Type of data set: ADME. The following applies: liver microsomes, read-out: CLH.
A short description of data set [16]: Acute toxicity in male CB17.SCID mouse implanted with human LNCaP cells assessed as body weight loss at 1250 mg/kg, po measured within 14 days. Type of data set: organism-based. The following applies: in vivo, 336 h, time 14 day.
Data set [17] in a line: Acute toxicity in male CB17.SCID mouse implanted with human LNCaP cells assessed as abnormal behavior at 1250 mg/kg, po measured within 14 days. Type of data set: organism-based. The following applies: in vivo, 336 h, time 14 day.

As a reminder, the IC50 is the concentration needed to halve the response being measured. What is called inhibition is the drop in the measured response relative to a control, in per cent. The half-life is the time needed for the level to fall by half in the phase considered. A word on the Tmax: it is the time from dosing to the highest level. One may read the Cmax as the maximum level reached in the sampled fluid or tissue. The term AUC(0-t) denotes the area under the concentration-time curve up to a stated or last time point. The term AUC(0-inf) denotes total exposure, with the tail of the curve extrapolated. Usually MRT last stands for a mean duration of stay, worked out from the concentration-time curve. The bioavailability is the share of a dose that reaches the circulation, judged against a reference dose that is usually intravenous.

Chain of Androgen receptor (Homo sapiens, UniProt P10275, F877L) (P10275 whole entry F877L): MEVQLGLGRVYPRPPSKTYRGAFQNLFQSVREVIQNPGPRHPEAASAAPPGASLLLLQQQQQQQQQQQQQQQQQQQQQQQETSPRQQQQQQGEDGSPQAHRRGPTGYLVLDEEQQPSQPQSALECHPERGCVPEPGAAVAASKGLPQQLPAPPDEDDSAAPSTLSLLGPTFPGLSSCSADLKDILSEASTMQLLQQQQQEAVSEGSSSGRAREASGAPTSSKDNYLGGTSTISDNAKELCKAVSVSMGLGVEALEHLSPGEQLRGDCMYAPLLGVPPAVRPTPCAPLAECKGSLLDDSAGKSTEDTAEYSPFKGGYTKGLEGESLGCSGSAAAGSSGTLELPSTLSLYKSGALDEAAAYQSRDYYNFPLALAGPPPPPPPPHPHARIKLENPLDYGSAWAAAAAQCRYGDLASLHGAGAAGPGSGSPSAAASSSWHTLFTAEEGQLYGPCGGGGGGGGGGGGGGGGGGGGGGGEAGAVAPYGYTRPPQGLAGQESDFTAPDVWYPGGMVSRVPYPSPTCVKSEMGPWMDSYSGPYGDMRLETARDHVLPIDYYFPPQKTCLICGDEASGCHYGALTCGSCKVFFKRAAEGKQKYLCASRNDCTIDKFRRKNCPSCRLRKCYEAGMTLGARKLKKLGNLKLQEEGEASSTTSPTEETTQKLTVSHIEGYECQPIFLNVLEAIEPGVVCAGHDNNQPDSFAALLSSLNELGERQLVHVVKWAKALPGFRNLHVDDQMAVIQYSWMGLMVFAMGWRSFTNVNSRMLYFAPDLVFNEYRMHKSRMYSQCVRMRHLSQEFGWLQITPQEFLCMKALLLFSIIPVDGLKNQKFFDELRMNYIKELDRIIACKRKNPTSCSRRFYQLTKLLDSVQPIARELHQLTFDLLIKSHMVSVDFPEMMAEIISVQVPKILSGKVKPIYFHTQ
Chain of hERG (KCNH2) (Q12809 whole entry): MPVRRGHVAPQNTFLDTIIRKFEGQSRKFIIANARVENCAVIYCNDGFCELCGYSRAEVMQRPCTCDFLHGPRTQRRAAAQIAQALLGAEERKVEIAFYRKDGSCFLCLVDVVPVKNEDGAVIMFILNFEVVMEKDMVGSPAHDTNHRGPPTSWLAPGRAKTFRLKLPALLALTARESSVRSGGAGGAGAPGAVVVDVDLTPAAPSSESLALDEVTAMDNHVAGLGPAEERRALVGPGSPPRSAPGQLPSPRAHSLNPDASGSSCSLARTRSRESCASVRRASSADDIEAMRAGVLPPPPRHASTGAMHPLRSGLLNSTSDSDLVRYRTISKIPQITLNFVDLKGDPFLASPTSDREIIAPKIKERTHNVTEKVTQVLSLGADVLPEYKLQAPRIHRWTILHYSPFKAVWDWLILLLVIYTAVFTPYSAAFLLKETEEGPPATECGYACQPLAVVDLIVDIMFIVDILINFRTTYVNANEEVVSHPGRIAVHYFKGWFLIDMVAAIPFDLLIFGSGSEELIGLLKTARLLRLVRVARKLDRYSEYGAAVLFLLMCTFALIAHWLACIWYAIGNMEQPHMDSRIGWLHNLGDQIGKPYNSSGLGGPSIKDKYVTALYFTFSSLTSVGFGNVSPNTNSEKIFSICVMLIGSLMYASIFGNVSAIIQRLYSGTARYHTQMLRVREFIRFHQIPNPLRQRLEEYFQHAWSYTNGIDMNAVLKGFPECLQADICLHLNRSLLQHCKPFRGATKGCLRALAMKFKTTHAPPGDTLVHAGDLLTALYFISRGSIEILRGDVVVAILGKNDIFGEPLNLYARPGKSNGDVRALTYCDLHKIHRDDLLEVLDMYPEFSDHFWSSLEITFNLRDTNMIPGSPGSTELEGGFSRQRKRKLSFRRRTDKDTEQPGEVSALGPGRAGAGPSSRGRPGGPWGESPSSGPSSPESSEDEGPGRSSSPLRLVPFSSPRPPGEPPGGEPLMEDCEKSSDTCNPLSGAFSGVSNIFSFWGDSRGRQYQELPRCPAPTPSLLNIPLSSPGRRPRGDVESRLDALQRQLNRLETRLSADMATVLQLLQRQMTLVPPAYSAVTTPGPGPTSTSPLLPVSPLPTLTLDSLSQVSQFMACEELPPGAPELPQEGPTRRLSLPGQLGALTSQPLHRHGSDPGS

As to `Cc1oc(-c2cccc(C(F)(F)F)c2)cc1C(=O)Nc1nc(CN2CCOCC2)ns1`, the values for the IC50 on Androgen receptor [1] and at Androgen receptor [3] were 18 nM and 10 nM, respectively. The compound further returned an inhibition at 10 µM at hERG (KCNH2) of 20.7%. In addition, the Activity result in [2], in data set [16] and in data set [17] was “Non-toxic” each time. The half-life in data set [4] is 6.86 h; in data set [12], 0.618 h; in data set [13], 1.58 h. The Tmax in data set [5] was determined as 3.33 h. The compound also yielded a Cmax in data set [6] of 8450 ng/mL. For the same compound, in data set [7], the AUC(0-t) worked out at 20500 ng·h/mL. This compound also showed an AUC(0-inf) in data set [8] of 35800 ng·h/mL. Besides, the Vd/F in [9] is 11.1 L/kg. In data set [10], this compound yielded an MRT last of 6.65 h. Besides, the bioavailability in data set [11] was 61.5%. Moreover, the microsomal CLint in [14] came to 31.5 µL/min/mg; in data set [15], 18 µL/min/mg.

Source of the values: ChEMBL document CHEMBL6120968, “Discovery of Thiadiazoleamide Derivatives as Potent, Selective, and Orally Available Antagonists Disrupting Androgen Receptor Homodimer” (J Med Chem, 2024).
